# Source: patent US20140106387A1, “METHOD FOR CONTROLLING NAD(P)/NAD(P)H RATIO BY OXIDOREDUCTASE” (MD BIOALPHA CO., LTD., priority 2006, published 2014)
# Key:
# AMPK, ACC = experiment: AMPK kinase / ACC activity in HepG2 cells; format: cell-based, human
# [1] = body weight, dietary intake, fat and tissue histology in C57BL/6 DIO mice; format: in vivo, mouse
# Experimental: The removed tissues were cut into a proper size, fixed in 10% formalin, washed with water, and embedded in paraffin to prepare blocks, according to a conventional method. The thus-prepared blocks were sectioned into a 4 μm thickness and subjected to hematoxylin and eosin (H&E) staining for observation of general changes.
# For observation of cellular microstructures, the removed tissues were sliced into a size of 1 mm^3, pre-fixed in 2.5% glutaraldehyde (0.1M PBS, pH 7.4, 4° C.) for 2 to 4 hours, washed, and post-fixed in a 1% osmium tetroxide solution for 2 hours. Then, according to a conventional method, the tissues were dehydrated with serial concentrations of ethanol and the solvent was replaced with propylene oxide. The tissues were embedded in an epoxy resin mixture, and the embedded tissues were subjected to thermal polymerization to prepare blocks. The thus-prepared blocks were sectioned into a thickness of 0.5 to 1 μm using a ultramicrotome and stained with toludine blue. Observation sites were selected under a light microscope and the tissues were ultrasectioned to a thickness of 60 to 70 nm. The ultrasectioned specimens were subjected to dual staining of uranyl acetate and lead citrate and were observed under a transmission electron microscope (H-600, Hitachi, Japan) at an accelerating voltage of 75 kV.
# Cryosectioned tissues were sectioned into a thickness of 5 μm, dried in air for 1 hour and reacted in a filtered 0.5% oil red 0 solution for 20 min. The tissue sections were washed with tap water, subjected to double staining with Gill hematoxylin for 20 to 30 sec, water-washed, and observed.
# Adipose tissues were sectioned into a thickness of 3 μm, deparaffinized, exposed to antigens in a citrate buffer under high pressure for 4 min and washed. The mixture was reacted in a 3% hydrogen peroxide solution for 10 min, and the reaction product was washed three times with a TBST solution for 3 min. The product was reacted with primary antibodies (guinea pig, anti-perilipin) against 200-fold diluted perilipin for 1 hour and washed with a TBST solution. Secondary antibodies (donkey anti-guinea pig, cy3-conjugated) were added and reacted with the product for 30 min. The reaction product was washed three times with a TBST solution for 3 min, mounted with Fluormount G and then observed under a fluorescence microscope.
# Animals were continuously fed high-fat diet pellets for 3 to 4 weeks, thereby establishing DIO mice. Mice were raised in a breeding room with a 12 h/12 h light/dark D) cycle. Animals were divided into three groups, i.e., a group with administration of physiological saline (n=3), a group with administration of a vehicle (n=5) and a group with administration of 50 mg/kg of a candidate compound (n=7). Samples were orally administered to animals every day. On Days 7, 28 and 56, each tissue was removed, frozen in liquid nitrogen, and stored at […] for short and long periods of time.
# All experimental animal procedures were performed according to a guideline of Institutional Animal Care and Use Committee, Chungnam National University School of Medicine. OLETF rats were purchased from Otsuka Research Institute. Male ob/ob and C57BL/6 mice were purchased from Jackson Laboratory. Animals were housed in a breeding room maintained at a constant temperature of […] and a 12 h/12 h light/dark (L/D) cycle. 4-week-old C57BL/6 male mice were fed ad libitum high fat diet (HFD, 24% (w/w) and 45% calories as fat, Research Diets Inc., New Brunswick, N.J. 08901, US) for 7 weeks. Mouse groups were divided into an untreated group, a vehicle-treated group (calcium silicate), a pair-fed group and a candidate compound-treated group (calcium silicate-coated […] nanoparticles). Body weight and dietary intake of animals were daily measured. Upon completion of experiments, some mice of each group were anesthetized and received MRI examinations. The remaining mice of the groups were anatomized and tissue weight thereof was measured. […]
# HEK293 cells = experiment: intracellular NADH / NAD(P)H concentration in HEK293 cells; format: cell-based, human; details: for intracellular NADH concentration: 2 hours
# Experimental: 2) Determination of Intracellular NAD(P)H Using a Water-Soluble Tetrazolium Salt-8 (WST-8) in Living Cells:
# A water-soluble tetrazolium salt was used to monitor the amount of NAD(P)H through its reduction to a yellow colored formazan dye. The total amount of NAD(P)H within viable cells in the medium was determined periodically by a spectrophotometer. Cells were seeded in 96-well plates (2×10^4 cells/well) and were cultured in 100 μl of a medium containing fetal bovine serum (FBS) and antibiotics for 24 hours. Immediately after treatment of the cells with a candidate compound (e.g., pyrano-1,2-naphthoquinone) at indicated concentrations and a 1/10 volume of a CCK-8 solution (Dojindo Molecular Technology), absorbance measurements were carried out using a spectrophotometer. The CCK-8 solution consisted of a water-soluble 2-(2-methoxy-4-nitrophenyl)-3-(4-nitrophenyl)-5-(2,4-disulfophenyl)-2H-tetrazolium monosodium salt (WST-8, 5 mM) and 1-methoxy-5-methylphenazinium methylsulfate (1-methoxy PMS, 0.2 mM) as an electron mediator. WST-8 produced a water-soluble yellow colored formazan dye through its bioreduction either in the presence of an electron carrier, 1-methoxy PMS and NAD(P)H or directly by NAD(P)H. Therefore, the reduction in tetrazolium salts mostly depends on the amount of intracellular NAD(P)H. The amount of formazan dye produced by the living cells in the medium was determined periodically at a wavelength of 450 nm (reference filter. 650 nm) by a spectrophotometer and compared to the values of control. In addition, a medium blank was prepared with only medium and physiological saline.
# In order to monitor monochromatic fluorescence (350 nm), light was illuminated using a 75 W xenon arc lamp directed via a 10 Hz chopper wheel; specific fluorescence intensity was measured at a wavelength of 405±15 nm and 460±10 nm.
# Specifically, the NQO1 activity and changes in the intracellular NAD(P)H fluorescence concentration in the presence/absence of NQO1 activity were measured in HepG2, HEK293 and pSG5 HA-NQO1 or pSG5 HA NQO1 C609T-inserted HEK293 cells.
smiles,measurement,setting,value
"CC1(C)CCC2=C(O1)c1ccccc1C(=O)C2=O [βL, 2,2-Dimethyl-3,4-dihydro-2H-benzo[h]chromene-5,6-dione]",ACC activation,"AMPK, ACC",decreases ACC activation
same,activity of AMPK,"AMPK, ACC; 10 μM, 30 min",increased
same,EM of liver tissues,"[1]; C57BL/6 DIO mice, 56 days",remarkably decreased fat vacuoles and glycogen stores
same,"accumulated fat in the liver (oil red O staining), diminished compared to control","[1]; C57BL/6 DIO mice, 56 days",≥ 90%
same,visceral fat and body weight,"[1]; C57BL/6 DIO mice, 56 days",conspicuous decreases
same,"amounts of subcutaneous, mesenteric, perirenal and gonadal fats","[1]; C57BL/6 DIO, first four weeks of 56 days",gradually decreased
same,number of type 1 myofibers in the soleus muscle,[1]; DIO mice,increased
same,"size of adipocytes, brown adipose tissues (H&E staining, EM)","[1]; Day 56, 50 mg/kg daily oral",remarkably decreased
same,"size of adipocytes, gonadal adipose tissues (perilipin staining)","[1]; Day 56, 50 mg/kg daily oral",remarkably decreased
same,body weight,"[1]; obese mice on high-fat diet, 50 mg/kg daily oral, 56 days",continuous weight loss for 56 days
same,dietary intake,"[1]; obese mice, 50 mg/kg daily oral, 56 days",decreases in dietary intake for the first two weeks
same,muscle mitochondria (EM),[1]; βL-treated DIO mice and ob/ob mice,normal morphology and increased numbers of mitochondria
same,intracellular NADH concentration,HEK293 cells; HEK293 cells after insertion of an NQO1 gene,concentration-dependent decrease of NADH
same,intracellular NADH concentration,HEK293 cells; HEK293 cells having no NQO1 activity,no change in an NADH concentration
same,NAD(P)H oxidation,HEK293 cells; HEK293 cells with insertion of a wild-type NQO1 gene,βL-facilitated NAD(P)H oxidation
same,NAD(P)H oxidation,HEK293 cells; HEK293 cells with insertion of catalytically inactive NQO1C609T gene,no oxidation of NAD(P)H
same,NAD(P)H oxidation,HEK293 cells; control HEK293 cells without the NQO1 activity,no such changes
